Source: ChEMBL document CHEMBL3414466, “Synthesis and anticancer activity of N-substituted 2-arylquinazolinones bearing trans-stilbene scaffold” (Eur J Med Chem, 2015)
Calls of active or inactive are those of the source. No cut-off for these calls is given here.

How the values were obtained:
MCF7 [1] = experiment: Cytotoxicity against human MCF7 cells by MTT assay; type: functional, cell-based
MDA-MB-231 [2] = experiment: Cytotoxicity against human MDA-MB-231 cells by MTT assay; type: functional, cell-based
T47D [3] = experiment: Cytotoxicity against human T47D cells by MTT assay; type: functional, cell-based
MCF7 [4] = experiment: Induction of apoptosis in human MCF7 cells assessed as change in morphology at IC50 after 24 hrs by acridine orange/ethidium bromide staining-based fluorescence microscopic analysis; type: functional, cell-based
MDA-MB-231 [5] = experiment: Induction of apoptosis in human MDA-MB-231 cells assessed as change in morphology at IC50 after 24 hrs by acridine orange/ethidium bromide staining-based fluorescence microscopic analysis; type: functional, cell-based
MDA-MB-231 [6] = experiment: Induction of apoptosis in human MDA-MB-231 cells assessed as early apoptotic cells at IC50 after 12 hrs by annexin V-FITC/propidium iodide staining-based flow cytometric analysis (reference value: 3.82%); type: functional
MDA-MB-231 [7] = experiment: Induction of apoptosis in human MDA-MB-231 cells assessed as late apoptotic cells at IC50 after 12 hrs by annexin V-FITC/propidium iodide staining-based flow cytometric analysis (reference value: 0.01%); type: functional
MDA-MB-231 [8] = experiment: Induction of apoptosis in human MDA-MB-231 cells assessed as necrotic cells at IC50 after 12 hrs by annexin V-FITC/propidium iodide staining-based flow cytometric analysis (reference value: 0.97%); type: functional
MDA-MB-231 [9] = experiment: Induction of apoptosis in human MDA-MB-231 cells assessed as viable cells at IC50 after 12 hrs by annexin V-FITC/propidium iodide staining-based flow cytometric analysis (reference value: 95.2%); type: functional
MCF7 [10] = experiment: Induction of apoptosis in human MCF7 cells assessed as early apoptotic cells at IC50 after 12 hrs by annexin V-FITC/propidium iodide staining-based flow cytometric analysis (reference value: 2.49%); type: functional
MCF7 [11] = experiment: Induction of apoptosis in human MCF7 cells assessed as late apoptotic cells at IC50 after 12 hrs by annexin V-FITC/propidium iodide staining-based flow cytometric analysis relative to control; type: functional
MCF7 [12] = experiment: Induction of apoptosis in human MCF7 cells assessed as necrotic cells at IC50 after 12 hrs by annexin V-FITC/propidium iodide staining-based flow cytometric analysis (reference value: 0.29%); type: functional
MCF7 [13] = experiment: Induction of apoptosis in human MCF7 cells assessed as viable cells at IC50 after 12 hrs by annexin V-FITC/propidium iodide staining-based flow cytometric analysis (reference value: 97.23%); type: functional
MCF7 [14] = experiment: Potency index, ratio of etoposide IC50 to compound IC50 for human MCF7 cells; type: functional
MDA-MB-231 [15] = experiment: Potency index, ratio of etoposide IC50 to compound IC50 for human MDA-MB-231 cells; type: functional
T47D [16] = experiment: Potency index, ratio of etoposide IC50 to compound IC50 for human T47D cells; type: functional

COc1ccc(-n2c(-c3ccccc3/C=C/c3ccccc3)nc3ccccc3c2=O)cc1
IC50 (MCF7 [1]): > 100 µM | IC50 (MDA-MB-231 [2]): > 100 µM | IC50 (T47D [3]): > 100 µM

C=CCn1c(-c2ccccc2/C=C/c2ccccc2)nc2ccccc2c1=O
IC50 (MCF7 [1]): 10.3 µM | IC50 (MDA-MB-231 [2]): 4.1 µM | IC50 (T47D [3]): 5.8 µM

CCCCn1c(-c2ccccc2/C=C/c2ccccc2)nc2ccccc2c1=O
IC50 (MCF7 [1]): 9.8 µM | IC50 (MDA-MB-231 [2]): 4 µM | IC50 (T47D [3]): 7.9 µM

Cc1ccc(Cn2c(-c3ccccc3/C=C/c3ccccc3)nc3ccccc3c2=O)cc1
IC50 (MCF7 [1]): 24.7 µM | IC50 (MDA-MB-231 [2]): 23.8 µM | IC50 (T47D [3]): 28.2 µM

CCCn1c(-c2ccccc2/C=C/c2ccccc2)nc2ccccc2c1=O
IC50 (MCF7 [1]): 29.4 µM | IC50 (MDA-MB-231 [2]): > 100 µM | IC50 (T47D [3]): > 100 µM

O=c1c2ccccc2nc(-c2ccccc2/C=C/c2ccccc2)n1-c1ccccc1
IC50 (MCF7 [1]): 44.9 µM | IC50 (MDA-MB-231 [2]): > 100 µM | IC50 (T47D [3]): > 100 µM

O=c1c2ccccc2nc(-c2ccccc2/C=C/c2ccccc2)n1C1CC1
IC50 (MCF7 [1]): 5.3 µM | IC50 (MDA-MB-231 [2]): 5.5 µM | IC50 (T47D [3]): 6.8 µM | Activity (MCF7 [4]): Active | Activity (MDA-MB-231 [5]): Active | Activity (MDA-MB-231 [6]): 22.41% | Activity (MDA-MB-231 [7]): 3.09% | Activity (MDA-MB-231 [8]): 4.37% | Activity (MDA-MB-231 [9]): 70.13% | Activity (MCF7 [10]): 25.88% | Activity (MCF7 [11]): 0.77% | Activity (MCF7 [12]): 0.59% | Activity (MCF7 [13]): 72.75%

O=c1c2ccccc2nc(-c2ccccc2/C=C/c2ccccc2)n1C1CCCC1
IC50 (MCF7 [1]): > 100 µM | IC50 (MDA-MB-231 [2]): > 100 µM | IC50 (T47D [3]): > 100 µM

CC(C)n1c(-c2ccccc2/C=C/c2ccccc2)nc2ccccc2c1=O
IC50 (MCF7 [1]): 6.7 µM | IC50 (MDA-MB-231 [2]): 8.4 µM | IC50 (T47D [3]): 6.2 µM

COc1ccc(Cn2c(-c3ccccc3/C=C/c3ccccc3)nc3ccccc3c2=O)cc1
IC50 (MCF7 [1]): > 100 µM | IC50 (MDA-MB-231 [2]): > 100 µM | IC50 (T47D [3]): > 100 µM

CC(C)Cn1c(-c2ccccc2/C=C/c2ccccc2)nc2ccccc2c1=O
IC50 (MCF7 [1]): 23.3 µM | IC50 (MDA-MB-231 [2]): 6.9 µM | IC50 (T47D [3]): 9.3 µM

CCC(C)n1c(-c2ccccc2/C=C/c2ccccc2)nc2ccccc2c1=O (stereo not drawn)
IC50 (MCF7 [1]): 3.8 µM | IC50 (MDA-MB-231 [2]): 4.9 µM | IC50 (T47D [3]): 3.6 µM | Ratio IC50 (MCF7 [14]): 2 | Ratio IC50 (MDA-MB-231 [15]): 2 | Ratio IC50 (T47D [16]): 2 | Activity (MCF7 [4]): Active | Activity (MDA-MB-231 [5]): Active | Activity (MDA-MB-231 [6]): 16.55% | Activity (MDA-MB-231 [7]): 2.27% | Activity (MDA-MB-231 [8]): 0.97% | Activity (MDA-MB-231 [9]): 80.2% | Activity (MCF7 [10]): 26.45% | Activity (MCF7 [11]): 1.95% | Activity (MCF7 [12]): 2.14% | Activity (MCF7 [13]): 69.46%

COc1cc([C@@H]2c3cc4c(cc3[C@@H](O[C@@H]3O[C@@H]5CO[C@@H](C)O[C@H]5[C@H](O)[C@H]3O)[C@H]3COC(=O)[C@H]23)OCO4)cc(OC)c1O [ETOPOSIDE]
IC50 (MDA-MB-231 [2]): 10.3 µM | IC50 (T47D [3]): 8.9 µM | Activity (MDA-MB-231 [6]): 22.41% | Activity (MDA-MB-231 [7]): 0.8% | Activity (MDA-MB-231 [8]): 0.27% | Activity (MDA-MB-231 [9]): 76.53% | Activity (MCF7 [10]): 36.92% | Activity (MCF7 [11]): 0.08% | Activity (MCF7 [12]): 0.1% | Activity (MCF7 [13]): 62.89%

O=c1c2ccccc2nc(-c2ccccc2/C=C/c2ccccc2)n1Cc1ccccc1
IC50 (MCF7 [1]): > 100 µM | IC50 (MDA-MB-231 [2]): > 100 µM | IC50 (T47D [3]): > 100 µM

Cc1ccc(-n2c(-c3ccccc3/C=C/c3ccccc3)nc3ccccc3c2=O)cc1
IC50 (MCF7 [1]): > 100 µM | IC50 (MDA-MB-231 [2]): > 100 µM | IC50 (T47D [3]): > 100 µM

CCn1c(-c2ccccc2/C=C/c2ccccc2)nc2ccccc2c1=O
IC50 (MCF7 [1]): 8.7 µM | IC50 (MDA-MB-231 [2]): 8.4 µM | IC50 (T47D [3]): 10.2 µM
